Laboratory results from patent publication US20240294498A1, “FACTOR XIIA INHIBITORS” (Lunac Therapeutics Ltd, priority 2021, published 2024).

How the values were obtained:
Format in all cases: biochemical
FXa = FXa (Homo sapiens, UniProt P00742); assay: Determination of selectivity: FXa inhibition (chromogenic substrate S2765); conditions: fold selectivity for FXIIa over FXa (human); category
Method in brief: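 FXa (5 nM) preincubated with increasing compound (top 500 μM) for 10 mins at 37° C in 50 mM Tris, 137 mM NaCl pH 7.4, 5% DMSO, then S2765 added at its KM. Absorbance at 405 nm followed kinetically for 3 hours; IC50 from initial rates, converted to Ki by Cheng-Prusoff.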

thrombin = biological target: T1, thrombin (Homo sapiens, UniProt P00734); assay: Determination of selectivity: thrombin inhibition (chromogenic substrate GPR); conditions: fold selectivity for FXIIa over thrombin (human); category
T1 construct: FXa (5 nM) and thrombin (5 nM)
Method in brief: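 Thrombin (5 nM) preincubated with increasing compound concentrations (top 500 μM, 5% DMSO) 10 min at 37 °C in 50 mM Tris, 137 mM NaCl pH 7.4, then GPR chromogenic substrate at its KM. pNA release read kinetically at 405 nm for 3 h at 37 °C. IC50 from initial rates, converted to Ki via Cheng–Prusoff.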

FXIIa = biological target: T2, FXIIa (Homo sapiens, UniProt P00748); assay: Determination of Factor XIIa inhibition (chromogenic substrate S-2302); conditions: human FXIIa alpha, Ki category
T2 construct: FXIIa alpha
T2 sequence (P00748 373-615 limits assumed): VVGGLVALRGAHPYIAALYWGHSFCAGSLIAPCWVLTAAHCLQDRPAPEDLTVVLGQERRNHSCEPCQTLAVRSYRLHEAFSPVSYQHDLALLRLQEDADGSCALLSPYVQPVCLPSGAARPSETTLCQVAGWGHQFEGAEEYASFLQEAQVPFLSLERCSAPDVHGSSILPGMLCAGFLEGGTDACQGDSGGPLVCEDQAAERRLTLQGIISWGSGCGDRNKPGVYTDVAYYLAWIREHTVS
T2 sequence (P00748 20-372 partner limits assumed): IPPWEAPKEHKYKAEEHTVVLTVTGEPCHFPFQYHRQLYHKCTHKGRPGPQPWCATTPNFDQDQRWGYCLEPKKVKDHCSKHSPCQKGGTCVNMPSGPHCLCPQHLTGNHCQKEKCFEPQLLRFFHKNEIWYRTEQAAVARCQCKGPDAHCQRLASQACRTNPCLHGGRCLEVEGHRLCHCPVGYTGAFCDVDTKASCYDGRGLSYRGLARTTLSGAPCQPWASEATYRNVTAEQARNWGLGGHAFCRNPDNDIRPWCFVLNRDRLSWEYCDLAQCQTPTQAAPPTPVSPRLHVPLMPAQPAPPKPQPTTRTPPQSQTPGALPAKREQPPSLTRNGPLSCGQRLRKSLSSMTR
Method in brief: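 Compound preincubated with 10 nM FXIIa for 10 min at 37° C in 50 mM Tris, 137 mM NaCl, pH 7.4, 5% DMSO, top concentration 500 μM; S-2302 added at Km. pNA release followed at 405 nm for 3 h; IC50 from initial rates, converted to Ki via Ki = IC50/(1+[S]/Km).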

Sequence of FXa (P00742 235-488 limits assumed): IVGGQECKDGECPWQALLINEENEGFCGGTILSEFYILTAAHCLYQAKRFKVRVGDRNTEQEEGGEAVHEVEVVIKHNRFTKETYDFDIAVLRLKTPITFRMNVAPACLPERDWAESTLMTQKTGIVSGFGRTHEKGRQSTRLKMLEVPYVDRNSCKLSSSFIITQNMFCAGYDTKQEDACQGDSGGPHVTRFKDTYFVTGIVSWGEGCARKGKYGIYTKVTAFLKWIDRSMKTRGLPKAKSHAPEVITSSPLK
Sequence of FXa (P00742 41-179 partner limits assumed): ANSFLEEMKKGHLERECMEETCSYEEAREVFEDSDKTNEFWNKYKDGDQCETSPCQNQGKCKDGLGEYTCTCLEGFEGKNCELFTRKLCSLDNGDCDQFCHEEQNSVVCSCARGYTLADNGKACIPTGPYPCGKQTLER

Row | SMILES | FXa (human)/FXIIa alpha (human) (FXa) | Ki (FXIIa) | Thrombin (human)/FXIIa alpha (human) (thrombin)
1 | Cn1ncc2cc(CNC(=O)[C@@H]3C[C@@H](Cc4ccc(C(F)(F)F)cc4)CN3C(=O)[C@@H]3NCCC[C@@H]3C(=O)N3CCCC3)ccc21 [Example M05788, (2S,4R)-N-((1-methyl-1H-indazol-5-yl)methyl)-1-((2R,3S)-3-(pyrrolidine-1-carbonyl)piperidine-2-carbonyl)-4-(4-(trifluoromethyl)benzyl)pyrrolidine-2-carboxamide] | ∘∘∘ | < 200 nM | +++ (fold selectivity values greater than 100)
2 | Cc1ccc(O[C@@H]2C[C@@H](C(=O)NCc3ccc4c(cnn4C)c3)N(C(=O)[C@@H]3NCCC[C@@H]3C(=O)N3CCCC3)C2)cc1 [Example M05798, (2S,4R)-N-[(1-methylindazol-5-yl)methyl]-4-(4-methylphenoxy)-1-[(2R,3S)-3-(pyrrolidine-1-carbonyl)piperidine-2-carbonyl]pyrrolidine-2-carboxamide] | ∘∘∘ | 800 to 5000 nM | +++ (fold selectivity values greater than 100)
3 | COc1cc(CNC(=O)[C@@H]2C[C@@H](Cc3ccc(C)cc3)CN2C(=O)[C@@H]2NCCC[C@@H]2C(=O)N2CCCC2)cc2cnn(C)c12 [Example M05799, (2S,4R)-N-((7-methoxy-1-methyl-1H-indazol-5-yl)methyl)-4-(4-methylbenzyl)-1-((2R,3S)-3-(pyrrolidine-1-carbonyl)piperidine-2-carbonyl)pyrrolidine-2-carboxamide] | ∘∘∘ | < 200 nM | ++ (a fold selectivity value of 10 to 100)
4 | Cc1ccc(C[C@@H]2C[C@@H](C(=O)NCc3ccc4c(cnn4C)c3)N(C(=O)[C@@H]3NCCC[C@@H]3C(=O)N3C4CCC3CC4)C2)cc1 [Example M05804, (2S,4R)-1-((2R,3S)-3-(7-azabicyclo[2.2.1]heptane-7-carbonyl)piperidine-2-carbonyl)-N-((1-methyl-1H-indazol-5-yl)methyl)-4-(4-methylbenzyl)pyrrolidine-2-carboxamide] | ∘∘∘ | 200 to 800 nM | +++ (fold selectivity values greater than 100)
5 | Cc1ccc(C[C@@H]2C[C@@H](C(=O)NCc3ccc4c(c3)c(F)nn4C)N(C(=O)[C@@H]3NCCC[C@@H]3C(=O)N3CCCC3)C2)cc1 [Example M05806, (2S,4R)-N-((3-fluoro-1-methyl-1H-indazol-5-yl)methyl)-4-(4-methylbenzyl)-1-((2R,3S)-3-(pyrrolidine-1-carbonyl)piperidine-2-carbonyl)pyrrolidine-2-carboxamide] | ∘∘∘ | < 200 nM | +++ (fold selectivity values greater than 100)
6 | Cn1ncc2cc(CNC(=O)[C@@H]3C[C@@H](Cc4ccccc4C(F)(F)F)CN3C(=O)[C@@H]3NCCC[C@@H]3C(=O)N3CCCC3)ccc21 [Example M05809, (2S,4R)-N-((1-methyl-1H-indazol-5-yl)methyl)-1-((2R,3S)-3-(pyrrolidine-1-carbonyl)piperidine-2-carbonyl)-4-(2-(trifluoromethyl)benzyl)pyrrolidine-2-carboxamide] | ∘∘∘ | 200 to 800 nM | +++ (fold selectivity values greater than 100)
7 | COc1nn(C)c2ccc(CNC(=O)[C@@H]3C[C@@H](Cc4ccc(C)cc4)CN3C(=O)[C@@H]3NCCC[C@@H]3C(=O)N3CCCC3)cc12 [Example M05810, (2S,4R)-N-((3-methoxy-1-methyl-1H-indazol-5-yl)methyl)-4-(4-methylbenzyl)-1-((2R,3S)-3-(pyrrolidine-1-carbonyl)piperidine-2-carbonyl)pyrrolidine-2-carboxamide] | ∘∘ | 800 to 5000 nM | ++ (a fold selectivity value of 10 to 100)

The next lines start with results.

Row | FXa (human)/FXIIa alpha (human) (FXa) | Ki (FXIIa) | SMILES | Thrombin (human)/FXIIa alpha (human) (thrombin)
8 | ∘∘∘ | 800 to 5000 nM | Cn1ncc2cc(CNC(=O)[C@@H]3C[C@@H](Cc4ccncc4)CN3C(=O)[C@@H]3NCCC[C@@H]3C(=O)N3CCCC3)ccc21 [Example M05811, (2S,4R)-N-((1-methyl-1H-indazol-5-yl)methyl)-4-(pyridin-4-ylmethyl)-1-((2R,3S)-3-(pyrrolidine-1-carbonyl)piperidine-2-carbonyl)pyrrolidine-2-carboxamide] | ++ (a fold selectivity value of 10 to 100)
9 | ∘∘∘ | < 200 nM | [2H]C([2H])([2H])n1ncc2cc(CNC(=O)[C@@H]3C[C@@H](Cc4ccc(C)cc4)CN3C(=O)[C@@H]3NCCC[C@@H]3C(=O)N3CCCC3)ccc21 [Example M05820, (2S,4R)-N-((1-(methyl-d3)-1H-indazol-5-yl)methyl)-4-(4-methylbenzyl)-1-((2R,3S)-3-(pyrrolidine-1-carbonyl)piperidine-2-carbonyl)pyrrolidine-2-carboxamide] | +++ (fold selectivity values greater than 100)
10 | ∘∘∘ | 800 to 5000 nM | Cn1ncc2cc(CNC(=O)[C@@H]3C[C@@H](Cc4cccc(C(F)(F)F)c4)CN3C(=O)[C@@H]3NCCC[C@@H]3C(=O)N3CCCC3)ccc21 [Example M05836, (2S,4R)-N-((1-methyl-1H-indazol-5-yl)methyl)-1-((2R,3S)-3-(pyrrolidine-1-carbonyl)piperidine-2-carbonyl)-4-(3-(trifluoromethyl)benzyl)pyrrolidine-2-carboxamide] | +++ (fold selectivity values greater than 100)
11 | ∘∘∘ | < 200 nM | CO[C@H]1CCN(C(=O)[C@H]2CCCN[C@H]2C(=O)N2C[C@H](Cc3ccc(C)cc3)C[C@H]2C(=O)NCc2ccc3c(cnn3C)c2)C1 [Example M05837, (2S,4R)-1-((2R,3S)-3-((S)-3-methoxypyrrolidine-1-carbonyl)piperidine-2-carbonyl)-N-((1-methyl-1H-indazol-5-yl)methyl)-4-(4-methylbenzyl)pyrrolidine-2-carboxamide] | +++ (fold selectivity values greater than 100)
12 | ∘∘∘ | < 200 nM | Cc1ccc(C[C@@H]2C[C@@H](C(=O)NCc3ccc4c(cnn4C)c3)N(C(=O)[C@@H]3NCCC[C@@H]3C(=O)N3CCCN(C)CC3)C2)cc1 [Example M05840, (2S,4R)-1-((2R,3S)-3-(4-methyl-1,4-diazepane-1-carbonyl)piperidine-2-carbonyl)-N-((1-methyl-1H-indazol-5-yl)methyl)-4-(4-methylbenzyl)pyrrolidine-2-carboxamide] | +++ (fold selectivity values greater than 100)
13 | ∘∘∘ | 800 to 5000 nM | Cc1ccc(C[C@@H]2C[C@@H](C(=O)NCC3CCn4c(nnc4C(F)(F)F)C3)N(C(=O)[C@@H]3NCCC[C@@H]3C(=O)N3CCCC3)C2)cc1 (stereo partly drawn) [Example M05851] | +++ (fold selectivity values greater than 100)
14 | ∘∘∘ | < 200 nM | CCO[C@H]1CCN(C(=O)[C@H]2CCCN[C@H]2C(=O)N2C[C@H](Cc3ccc(C)cc3)C[C@H]2C(=O)NCc2ccc3c(cnn3C)c2)C1 [Example M05853, (2S,4R)-1-((2R,3S)-3-((S)-3-ethoxypyrrolidine-1-carbonyl)piperidine-2-carbonyl)-N-((1-methyl-1H-indazol-5-yl)methyl)-4-(4-methylbenzyl)pyrrolidine-2-carboxamide] | +++ (fold selectivity values greater than 100)
15 | ∘∘∘ | 200 to 800 nM | Cn1ncc2cc(CNC(=O)[C@@H]3C[C@@H](Cc4ccc(Cl)cc4)CN3C(=O)[C@@H]3NCCC[C@@H]3C(=O)N3CCCC3)ccc21 [Example M05854, (2S,4R)-4-(4-chlorobenzyl)-N-((1-methyl-1H-indazol-5-yl)methyl)-1-((2R,3S)-3-(pyrrolidine-1-carbonyl)piperidine-2-carbonyl)pyrrolidine-2-carboxamide] | +++ (fold selectivity values greater than 100)
